Results as given in PMC4456413, “Trypanothione Reductase: A Target Protein for a Combined In Vitro and In Silico Screening Approach” (PLoS Neglected Tropical Diseases, 2015).
Where two headings read alike, the source gives them in different places.

Columns and labels:
[1] = target: T1, T. cruzi TR (Trypanosoma cruzi, UniProt P28593); assay: Ki determination and inhibition type on TR; assay type: biochemical; settings: for binding mode (inhibition type): SigmaPlot Enzyme Kinetics Module; for Ki (Fig 7, uncompetitive mode of inhibition assumed): mean of two independent experiments, no unit printed in the figure, in µM
T1 construct: made in house
Procedure: (§1) The kinetic analysis of TR was performed in 384-well plates (Greiner Bio-One GmbH, Frickenhausen, Germany). The reaction mixture (50 μl) contained 5 mU/ml TR, 40 mM Hepes, pH 7.5, 1 mM EDTA, 300 μM NADPH (Sigma-Aldrich), 0.1 mg/ml BSA, and 0.01% Pluronic (BASF). The detergent was used to prevent the formation of droplets during pipetting and had no negative effects on the assay kinetics. In a volume of 30 μl, the assay components and the inhibitor were pre-incubated for 30 minutes and the reaction started by adding 20 μl of 375 μM TS2 resulting in final concentrations of 150 μM TS2 and 2% DMSO. The absorption decrease at 340 nm was measured by start and end point determination resulting in a delta of the optical density (delta A) for 30 min. All experiments were performed at room temperature. The TR concentration was kept constant at 5 mU/ml for all types of experiments. Therefore, after an initial calculation of the turnover number (kcat), only delta A values under identical conditions were compared. Initial screening was performed twice in two independent experiments.
Measurements were performed at 60, 80, 120, and 200 μM TS2 and five inhibitor concentrations resulting in 20 different data points per inhibitor. […] SigmaPlot 10 (Systat Software, Inc., San Jose, USA) with the Enzyme Kinetics Module was used to evaluate the inhibition type and Ki values. This software automatically estimates the initial parameters for different fit models, and uses the Marquardt-Levenberg algorithm to determine the parameter values. A detailed statistical report as well as a data report is generated to compare multiple models and graphs. Based on these statistics, the appropriate binding model can be selected. Graphs are created based on the models and the calculated parameter values instead of fitting each individual inhibitor concentration curve.

[2] = design: method as in ref 47 = [47]; 47 PubChem (2014) Chlorhexidine (CID 9552079), sections “Biomedical Effects and Tixicity” and “Biomolecular Interactions and Pathways”. Available: http://pubchem.ncbi.nlm.nih.gov/summary/summary.cgi?c; settings: in words; cited from earlier work
[3] = target: TR; design: method as in ref 39 (mepacrine), 42 (BG237), 43 (chlorhexidine); settings: published data used for assay validation; ref 39 (mepacrine), 42 (BG237), 43 (chlorhexidine); cited from earlier work
[4] = target: T1, T. cruzi TR; assay: biochemical
Procedure: (§2) The compounds used in the enzymatic inhibitory testing and the in silico screening were available as stock solutions in DMSO or in solid from a compound library maintained at MSD. All IC50 determinations were performed starting from solid material. Recombinant T. cruzi TR (CL strain) was prepared using a published expression system. TS2 was prepared enzymatically as described previously. For antiparasitic studies, culture-adapted bloodstream T. brucei parasites of cell line 449 were used. These cells are descendants of strain Lister 427 stably transfected with the gene for the tetracycline repressor.
as §1, with “The detergent was used to prevent the formation of droplets during pipetting and had no negative effects on the assay kinetics.” left out
Eleven compound concentrations were used ranging from 100–0.01 μM or 200–0.004 μM. The compounds were freshly dissolved in DMSO. All measurements were performed twice in three independent series. Enzyme activities were plotted versus increasing inhibitor concentrations. IC50 values were calculated using the four-parameter equation model 205 and the option “unlock” from the XLfit add-in (IDBS, Guildford, United Kingdom) in Excel (Microsoft Corporation, Redmond, WA).
A robust NADPH-linked photometric assay was chosen that firstly had to be adapted to the high throughput screening format. The assay volume was reduced from the 1 ml cuvette format to 50 μl total volume in 384 well plates. […] In order to stabilize the enzyme and to prevent adhesion and reduce surface tension as well as the formation of droplets in the small wells, 0.1 mg/ml BSA and 0.01% detergent (Pluronic) were added to the reaction mixture.

[5] = target: T1, T. cruzi TR; assay: Mode of inhibition study: reversibility of binding (Amicon filter wash-out, then standard TR assay); assay type: biochemical
Procedure: Therefore, Amicon Ultra 0.5 ml centrifugal filters with a cut-off of 10,000 MW (Millipore Corporation, Billerica, MA, USA) were washed with 400 μl TR assay buffer and centrifuged for 5 min at 12,500 rpm at room temperature. Remaining buffer was removed by placing the filter upside down into a microcentrifuge tube and centrifugation at 3,500 rpm for 2 min. […] The filter was centrifuged for 15 min at 12,500 rpm, washed three times with 400 μl buffer and centrifuged again. The retentate was collected by placing the filter upside down on a new tube and centrifugation at 3,500 rpm for 2 min. The recovered protein solutions were subjected to a standard TR assay.
A reaction mixture containing TR, inhibitor and NADPH was incubated for 30 minutes. […] Afterwards, the protein was separated from the low molecular mass components by centrifugation in an Amicon tube. Inhibitors with a reversible binding mode would be washed out, whereas irreversible binders remain bound to the protein. Finally, the recovered protein solution was subjected to a standard assay to determine the remaining activity. Two controls were run to determine the maximum activity that could be recovered. One contained the protein assay mixture without inhibitor, while the second control was a mixture of TR and the reversible inhibitor chlorhexidine. […] Subsequently the inhibitor type and constants were determined.

[6] = system: bloodstream T. brucei (strain 449); assay: Cell culture activity determination by counting living cells; assay type: cell-based; settings: for EC50: Trypanosoma brucei, read-out: EC50, inhibition of parasite proliferation (living cells counted)
Procedure: as §2
Compounds were dissolved in DMSO to 10 mM stock solutions and added to bloodstream T. brucei (strain 449) in concentrations of 100, 50, 5, 0.5, and 0.05 μM in 24-well plates. The final DMSO content in the cultures was 1, 0.5, 0.05, 0.005 and 0.0005%, respectively. The initial cell density was 2500 cells/ml. After 48 h and 72 h incubation at 37°C in HMI-9 medium, viable cells were counted in a Neubauer chamber. The assay was performed in triplicate. The parasite strain and the culture conditions are described in the literature.

[7] = system: T. brucei parasites transfected with pHD1700-TbTR (TR-Over-expressing cells); assay: EC50 determination by ATPlite 1step assay, TR-over-expressing cells; assay type: cell-based; settings: Trypanosoma brucei
Procedure: (§3) The ATPlite 1step assay system (PerkinElmer, Waltham, MA, USA) was used as described in Füller et al. to quantify T. brucei survival in medium-throughput dose-response series. Experiments were conducted in 96-well microplates (PerkinElmer, Waltham, MA, USA), each well containing 90 μl cell-culture and 10 μl compound. Initial cell densities were 2500 cells/ml. […] Unfortunately, compound 3 was no longer available for testing. […] For each compound, three identical plates were prepared, incubated at 37°C and analyzed after 24 h, 48 h, and 72 h, respectively. Samples from each cell-line left untreated were added to the plates prior to each measurement as additional controls. 50 μl of the ATPlite 1step solution (PerkinElmer, Waltham, MA, USA) were added to each well and the relative luminescence was measured immediately using a VICTOR Multilabel Plate Reader (PerkinElmer, Waltham, MA, USA) at room temperature. The values obtained were plotted against the logarithmic compound concentrations. A dose-response curve was generated from which EC50-values were calculated using the program PRISM 5.0 (GraphPad Software, La Jolla, CA, USA).
(§4) The parasites were cultured in the presence of different concentrations of the compounds and after 48 h and 72 h living cells were counted. […] The assay is based on the emission of light caused by the reaction of ATP with D-luciferin in the presence of luciferase, which is proportional to the amount of ATP serving as a marker for cell viability. […] Unfortunately, the T. brucei strain allowing the down-regulation of TR which was generated more than a decade ago in the laboratory of Christine Clayton is not available anymore. Therefore, this tet-inducible overexpressing system leading to up to three fold higher TR levels had to be used instead. Wild-type cells treated with 1 μg/ml tetracyclin were included to exclude any effect of the antibiotic on parasite proliferation.

[8] = system: bloodstream T. brucei wild-type cells; assay: EC50 determination by ATPlite 1step assay, wild-type cells; assay type: cell-based; settings: Trypanosoma brucei
Procedure: as §3, §4

[9] = system: T. brucei; settings: read-out: EC50, inhibition of proliferation of T. brucei; cited from earlier work
[10] = HTS format, Ki ± SD (n = 3), Table 1, read-out: Ki Measured
[11] = 60-200 μM TS2, two independent experiments
[12] = 60-200 μM TS2, two independent experiments, read-out: Ki, assumed inhibitor type competitive
[13] = 60-200 μM TS2, two independent experiments, read-out: Ki, assumed inhibitor type noncompetitive

T1 sequence (P28593 whole entry): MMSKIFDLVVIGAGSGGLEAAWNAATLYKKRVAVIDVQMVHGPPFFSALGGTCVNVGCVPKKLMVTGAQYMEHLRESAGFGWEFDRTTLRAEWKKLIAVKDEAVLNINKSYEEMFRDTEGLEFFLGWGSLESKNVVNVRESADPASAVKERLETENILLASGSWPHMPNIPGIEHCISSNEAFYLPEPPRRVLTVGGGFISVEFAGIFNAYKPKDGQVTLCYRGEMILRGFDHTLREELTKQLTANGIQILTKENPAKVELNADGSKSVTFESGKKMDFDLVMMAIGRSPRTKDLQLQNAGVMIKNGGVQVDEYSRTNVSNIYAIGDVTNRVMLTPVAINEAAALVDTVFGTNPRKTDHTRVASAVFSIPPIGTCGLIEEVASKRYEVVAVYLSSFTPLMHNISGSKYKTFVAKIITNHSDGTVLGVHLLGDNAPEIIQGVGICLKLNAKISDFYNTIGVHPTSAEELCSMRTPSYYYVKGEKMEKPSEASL

Row | SMILES | IC50 [4] [µM] | EC50 [6] [µM] | Ki, assumed inhibitor type uncompetitive [1, 11] [µM] | Ki [1, 12] [µM] | Ki [1, 13] [µM] | Ki (Fig 7, uncompetitive mode of inhibition assumed) [1] | other results
1 | [H]/N=C(\N/C(=N/[H])NCCCCCCNC(=N)NC(=N)Nc1ccc(Cl)cc1)Nc1ccc(Cl)cc1 [Chlorhexidine, reference compound] | 26 ± 2 | 0.1 to 0.2 | – | – | – | – | Ki [1, 10]: 4 ± 1 µM; binding mode (inhibition type) [1]: competitive binding mode; permeability described in pharmacokinetic studies [2]: poor permeability; Ki [3]: 2 µM; reversible or irreversible binding to the enzyme ([5]; 100 μM inhibitor, 300 μM NADPH, 30 min incubation, wash-out): reversible; TR activity recovered compared to the initial kinetics ([5]; after wash-out of the inhibitor): 70–80%
2 | O=C(Nc1ccccc1)OCCSc1ccc([N+](=O)[O-])c2nonc12 [Compound 1] | 0.27 ± 0.01 | – | 0.23 ± 0.02 | 0.06 ± 0.03 | 0.33 ± 0.03 | 0.23 ± 0.02 | –
3 | O=[N+]([O-])c1c(Sc2ncnc3ccccc23)cc(Cl)c2nsnc12 [Compound 2] | 0.58 ± 0.09 | 5 to 50 | 0.88 ± 0.08 | 0.26 ± 0.12 | 1.3 ± 0.12 | 0.88 ± 0.08 | EC50 ([7]; 24 h, read-out: EC50 24 h, TR-Over-expressing cells): 37.6 ± 1.9 µM; EC50 ([7]; 48 h, read-out: EC50 48 h, TR-Over-expressing cells): 46.9 ± 3.1 µM; EC50 ([7]; 72 h, read-out: EC50 72 h, TR-Over-expressing cells): 82 ± 1.6 µM; EC50 ([8]; read-out: EC50 24 h, Wild-type cells, ATPlite, 24 h, mean ± SD of three series): 56.4 ± 2 µM; EC50 ([8]; read-out: EC50 48 h, Wild-type cells, ATPlite, 48 h, mean ± SD of three series): 33 ± 2.2 µM; EC50 ([8]; read-out: EC50 at 24 h (ATPlite), 24 h, cell type not given): 42 µM; EC50 ([8]; read-out: EC50 at 48 h (ATPlite), 48 h, cell type not given): 42 µM; EC50 ([8]; 72 h, cell type not given, read-out: EC50 after 72 h (ATPlite)): 58 µM; EC50 ([8]; ATPlite, 72 h, series containing up to 150 μM compound = 1.5% DMSO, which affects cell viability, read-out: EC50 72 h, Wild-type cells): 55.9 ± 1.3 µM
4 | O=[N+]([O-])c1c(Cl)cc(Cl)c2nsnc12 [Compound 3] | 0.61 ± 0.09 | 5 to 50 | 0.64 ± 0.06 | 0.15 ± 0.09 | 0.91 ± 0.08 | 0.64 ± 0.06 | –
5 | NS(=O)(=O)c1ccc(Nc2cc(Cl)c3nonc3c2[N+](=O)[O-])cc1 [Compound 4] | 0.48 ± 0.02 | – | 0.80 ± 0.10 | 0.19 ± 0.07 | 1.11 ± 0.13 | 0.80 ± 0.10 | EC50, inhibition of parasite proliferation (living cells counted) ([6]; after 48 h and 72 h): not active
6 | CCN(CC)CCCC(C)Nc1c2ccc(Cl)cc2nc2ccc(OC)cc12 (stereo not shown) [Mepacrine, reference compound] | > 200 | – | – | – | – | – | Ki [1, 10]: 20 ± 5 µM; binding mode (inhibition type) [1]: competitive binding mode; Ki ([1]; three independent experiments, fitted to the relevant binding model, read-out: measured Ki (Lineweaver-Burk plots, Fig 3)): 20.7 ± 5.47 µM; Ki [3]: 19 µM
7 | CC1CS(=O)(=O)CCN1/N=C/c1ccc([N+](=O)[O-])o1 (stereo not shown) [nifurtimox] | – | – | – | – | – | – | EC50 [9]: 2.5 µM
